Measured values from ChEMBL document CHEMBL1201862, “PubChem BioAssay data set” (2004).
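The compound was tested at five concentrations on cells cultured in 96-well plates, with a 48-hour exposure period. GI50 = concentration required for 50% inhibition of growth.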 Activity calls are given as the source filed them. Cut-off read from the data, not from the text of the source: active = GI50 up to about 1.1 µM and inactive = higher.

Columns and labels:
Assay in all cases: inhibition of tumour cell growth, NCI panel, 48 h
[1] = test system: 786-0
[2] = test system: A498
[3] = test system: A549
[4] = test system: ACHN
[5] = test system: BT-549
[6] = test system: CAKI-1
[7] = test system: CCRF-CEM
[8] = test system: COLO 205
[9] = test system: DU-145
[10] = test system: EKVX
[11] = test system: HCC 2998
[12] = test system: HCT-116
[13] = test system: HCT-15
[14] = test system: HL-60
[15] = test system: HOP-62
[16] = test system: HOP-92
[17] = test system: HT-29
[18] = test system: Hs-578T
[19] = test system: IGROV-1
[20] = test system: K562
[21] = test system: KM12
[22] = test system: LOX IMVI
[23] = test system: M14
[24] = test system: MCF7
[25] = test system: MDA-MB-231
[26] = test system: MDA-MB-435
[27] = test system: MDA-N
[28] = test system: MOLT-4
[29] = test system: Malme-3M
[30] = test system: NCI-H226
[31] = test system: NCI-H23
[32] = test system: NCI-H460
[33] = test system: NCI-H522
[34] = test system: OVCAR-3
[35] = test system: OVCAR-4
[36] = test system: OVCAR-5
[37] = test system: PC-3
[38] = test system: RPMI-8226
[39] = test system: RXF 393
[40] = test system: SF-268
[41] = test system: SF-295
[42] = test system: SF-539
[43] = test system: SK-MEL-28
[44] = test system: SK-MEL-2
[45] = test system: SK-MEL-5
[46] = test system: SK-OV-3
[47] = test system: SN12C
[48] = test system: SNB-19
[49] = test system: SR
[50] = test system: SW-620
[51] = test system: T47D
[52] = test system: TK-10
[53] = test system: U-251
[54] = test system: UACC-257
[55] = test system: UACC-62
[56] = test system: UO-31
[57] = test system: NCI/ADR-RES
[58] = test system: OVCAR-8
[59] = test system: SNB-75

`COc1cccc2c(Nc3ccc(S(=O)(=O)Nc4ncccn4)cc3)c3ccc([N+](=O)[O-])cc3nc12` was tested. Which GI50 [1] did it give?
The GI50 was 23.6 µM (inactive).

What about the GI50 [2] of the same molecule?
Its GI50 is > 100 µM (inactive).

And the GI50 [3]?
Its GI50 is > 100 µM (inactive).

What about the GI50 [4] of the same molecule?
The GI50 was 7.06 µM (inactive).

And the GI50 [5]?
Its GI50 is 59.7 µM (inactive).

What about the GI50 [6] of the same molecule?
Its GI50 is 4.8 µM (inactive).

What about the GI50 [7] of the same molecule?
The GI50 was 9.82 µM (inactive).

What about the GI50 [8] of the same molecule?
The GI50 was 60.7 µM (inactive).

What about the GI50 [9] of the same molecule?
Its GI50 is 19.5 µM (inactive).

And the GI50 [10]?
Its GI50 is > 100 µM (inactive).

And the GI50 [11]?
Its GI50 is 67 µM (inactive).

What about the GI50 [12] of the same molecule?
The GI50 was 22.4 µM (inactive).

What about the GI50 [13] of the same molecule?
The GI50 was 24.7 µM.

And the GI50 [14]?
Its GI50 is 10.4 µM (inactive).

And the GI50 [15]?
The GI50 was 85.3 µM (inactive).

And the GI50 [16]?
The GI50 was 12.4 µM (inactive).

And the GI50 [17]?
The GI50 was 57.4 µM (inactive).

What about the GI50 [18] of the same molecule?
The GI50 was > 100 µM (inactive).

And the GI50 [19]?
Its GI50 is 4.13 µM (inactive).

What about the GI50 [20] of the same molecule?
The GI50 was 23 µM (inactive).

What about the GI50 [21] of the same molecule?
Its GI50 is 12.5 µM (inactive).

What about the GI50 [22] of the same molecule?
The GI50 was 30.6 µM (inactive).

What about the GI50 [23] of the same molecule?
The GI50 was 45.1 µM (inactive).

And the GI50 [24]?
The GI50 was 47.1 µM (inactive).

What about the GI50 [25] of the same molecule?
The GI50 was 38.7 µM (inactive).

And the GI50 [26]?
The GI50 was 45.6 µM (inactive).

And the GI50 [27]?
Its GI50 is 54.5 µM (inactive).

And the GI50 [28]?
Its GI50 is 14.3 µM (inactive).

And the GI50 [29]?
Its GI50 is 12.9 µM (inactive).

And the GI50 [30]?
The GI50 was 38.7 µM (inactive).

What about the GI50 [31] of the same molecule?
Its GI50 is 72.1 µM (inactive).

And the GI50 [32]?
Its GI50 is 27.7 µM (inactive).

And the GI50 [33]?
Its GI50 is 66.1 µM (inactive).

What about the GI50 [34] of the same molecule?
The GI50 was > 100 µM (inactive).

And the GI50 [35]?
Its GI50 is > 100 µM (inactive).

What about the GI50 [36] of the same molecule?
The GI50 was > 100 µM (inactive).

What about the GI50 [37] of the same molecule?
Its GI50 is 40.6 µM (inactive).

And the GI50 [38]?
Its GI50 is 8.67 µM (inactive).

What about the GI50 [39] of the same molecule?
The GI50 was 60.8 µM (inactive).

What about the GI50 [40] of the same molecule?
The GI50 was > 100 µM (inactive).

What about the GI50 [41] of the same molecule?
The GI50 was > 100 µM (inactive).

What about the GI50 [42] of the same molecule?
The GI50 was 37.8 µM (inactive).

What about the GI50 [43] of the same molecule?
The GI50 was > 100 µM (inactive).

And the GI50 [44]?
The GI50 was 89.9 µM (inactive).

What about the GI50 [45] of the same molecule?
The GI50 was 54.5 µM (inactive).

What about the GI50 [46] of the same molecule?
The GI50 was 54.6 µM (inactive).

And the GI50 [47]?
Its GI50 is 92.7 µM (inactive).

What about the GI50 [48] of the same molecule?
Its GI50 is > 100 µM (inactive).

And the GI50 [49]?
Its GI50 is 1.95 µM (inactive).

What about the GI50 [50] of the same molecule?
The GI50 was 63.8 µM (inactive).

What about the GI50 [51] of the same molecule?
Its GI50 is 8.22 µM (inactive).

And the GI50 [52]?
The GI50 was > 100 µM (inactive).

What about the GI50 [53] of the same molecule?
The GI50 was 48.5 µM (inactive).

What about the GI50 [54] of the same molecule?
Its GI50 is > 100 µM (inactive).

And the GI50 [55]?
The GI50 was 9.12 µM (inactive).

What about the GI50 [56] of the same molecule?
The GI50 was 5.66 µM (inactive).

Which results are given for `CCOC(=O)c1cc(C2(OC)CCN(Cc3ccccc3)C2=O)c(-c2cc(C)no2)[nH]1` (stereo unspecified)?
GI50 [1]: > 100 µM (inactive); GI50 [2]: > 100 µM (inactive); GI50 [3]: > 100 µM (inactive); GI50 [4]: > 100 µM (inactive); GI50 [5]: > 100 µM (inactive); GI50 [6]: > 100 µM (inactive); GI50 [8]: > 100 µM (inactive); GI50 [9]: > 100 µM (inactive); GI50 [10]: 93.1 µM (inactive); GI50 [11]: > 100 µM (inactive); GI50 [12]: > 100 µM (inactive); GI50 [13]: > 100 µM; GI50 [15]: > 100 µM (inactive); GI50 [16]: 90.6 µM (inactive); GI50 [17]: 75.7 µM (inactive); GI50 [18]: > 100 µM (inactive); GI50 [19]: > 100 µM (inactive); GI50 [20]: > 100 µM (inactive); GI50 [21]: > 100 µM (inactive); GI50 [23]: > 100 µM (inactive); GI50 [24]: 94.6 µM (inactive); GI50 [25]: > 100 µM (inactive); GI50 [26]: > 100 µM (inactive); GI50 [27]: > 100 µM (inactive); GI50 [28]: > 100 µM (inactive); GI50 [29]: > 100 µM (inactive); GI50 [31]: > 100 µM (inactive); GI50 [32]: 82.4 µM (inactive); GI50 [33]: > 100 µM (inactive); GI50 [57]: > 100 µM (inactive); GI50 [34]: > 100 µM (inactive); GI50 [35]: > 100 µM (inactive); GI50 [36]: > 100 µM (inactive); GI50 [58]: > 100 µM (inactive); GI50 [37]: > 100 µM (inactive); GI50 [38]: > 100 µM (inactive); GI50 [39]: 99.5 µM (inactive); GI50 [40]: > 100 µM (inactive); GI50 [41]: > 100 µM (inactive); GI50 [43]: > 100 µM (inactive); GI50 [44]: > 100 µM (inactive); GI50 [45]: 97.1 µM (inactive); GI50 [46]: > 100 µM (inactive); GI50 [48]: > 100 µM (inactive); GI50 [59]: > 100 µM (inactive); GI50 [50]: > 100 µM (inactive); GI50 [51]: > 100 µM (inactive); GI50 [52]: > 100 µM (inactive); GI50 [53]: > 100 µM (inactive); GI50 [54]: > 100 µM (inactive); GI50 [55]: > 100 µM (inactive); GI50 [56]: > 100 µM (inactive)

Which results are given for `CC(=O)OCCCCn1nncc1Cn1ccc(=O)n(Cc2cnnn2CCCCOC(C)=O)c1=O`?
GI50 [1]: > 100 µM (inactive); GI50 [2]: > 100 µM (inactive); GI50 [3]: > 100 µM (inactive); GI50 [4]: > 100 µM (inactive); GI50 [5]: > 100 µM (inactive); GI50 [6]: > 100 µM (inactive); GI50 [7]: 0.385 µM (active); GI50 [8]: > 100 µM (inactive); GI50 [9]: > 100 µM (inactive); GI50 [10]: > 100 µM (inactive); GI50 [11]: > 100 µM (inactive); GI50 [12]: > 100 µM (inactive); GI50 [13]: > 100 µM; GI50 [15]: > 100 µM (inactive); GI50 [16]: > 100 µM (inactive); GI50 [18]: > 100 µM (inactive); GI50 [19]: > 100 µM (inactive); GI50 [21]: > 100 µM (inactive); GI50 [22]: > 100 µM (inactive); GI50 [23]: > 100 µM (inactive); GI50 [24]: > 100 µM (inactive); GI50 [25]: > 100 µM (inactive); GI50 [26]: > 100 µM (inactive); GI50 [27]: > 100 µM (inactive); GI50 [28]: > 100 µM (inactive); GI50 [29]: > 100 µM (inactive); GI50 [30]: > 100 µM (inactive); GI50 [31]: > 100 µM (inactive); GI50 [57]: > 100 µM (inactive); GI50 [34]: > 100 µM (inactive); GI50 [35]: > 100 µM (inactive); GI50 [36]: > 100 µM (inactive); GI50 [58]: > 100 µM (inactive); GI50 [37]: > 100 µM (inactive); GI50 [38]: > 100 µM (inactive); GI50 [39]: > 100 µM (inactive); GI50 [40]: > 100 µM (inactive); GI50 [41]: > 100 µM (inactive); GI50 [42]: > 100 µM (inactive); GI50 [43]: > 100 µM (inactive); GI50 [44]: > 100 µM (inactive); GI50 [45]: > 100 µM (inactive); GI50 [46]: > 100 µM (inactive); GI50 [47]: > 100 µM (inactive); GI50 [48]: > 100 µM (inactive); GI50 [59]: > 100 µM (inactive); GI50 [50]: > 100 µM (inactive); GI50 [51]: > 100 µM (inactive); GI50 [52]: > 100 µM (inactive); GI50 [53]: > 100 µM (inactive); GI50 [54]: > 100 µM (inactive); GI50 [55]: > 10 µM (inactive); GI50 [56]: > 100 µM (inactive)
